Data on two molecules can be found in US10301630B2, “Methods and compositions for unsilencing imprinted genes” (The University of North Carolina at Chapel Hill, priority 2010, dated 2019).

Experiment [1] relates to paternal Ube3a-YFP mRNA. Kind of experiment: Real-time PCR of Ube3a-YFP transcript in cortical neurons. The conditions noted are these: 10 μM for 72 h. It is filed as cell-based, mouse. From the text:
Total mRNA was isolated by guanidinium thiocyanate-phenol-chloroform extraction using the Trizol reagent (Invitrogen Inc.). Total mRNAs from samples were converted into cDNA and subjected to real-time PCR (RT-PCR) analyses to quantify Ube3a-YFP transcript levels using oliognucleotide primers against Ube3a (Forward sequence: [NT] (SEQ ID NO:1); reverse sequence: [NT] (SEQ ID NO:2)) and total transcript reads were normalized to Oaz1 (Forward sequence: [NT] (SEQ ID NO:3); reverse sequence: [NT] (SEQ ID NO:4)).
For orientation: In qPCR the cycle at which signal appears reflects the starting amount.

Experiment [2] concerns Ube3a-YFP protein. Kind of experiment: Western blot of Ube3a-YFP protein in cortical neurons. It is filed as cell-based, mouse. The following applies: 10 μM for 72 h. The method, then: (§1) Embryonic day 13.5 to 15.5 mice that encode the paternal Ube3a-YFP transgene or Ube3a^m−/p+ mice (i.e., AS model mice) were identified and primary cortical neuronal cultures were obtained and plated in 6 well plates. […] To assess Ube3a-YFP protein levels, 7.5 ug of total protein lysates from Ube3a-YFP neurons were separated by 8% SDS-polyacrylamide gel electrophoresis, proteins were transferred to nitrocellulose membranes and immunoblotting was performed using a rabbit anti-GFP antibody (Novus) and Alexa Fluor 680 goat anti-rabbit IgG (Invitrogen). Ube3a-YFP protein bands were visualized by a LiCOR system and to control for protein loading, Ube3a-YFP protein levels were normalized to actin level detected in each sample. To assess Ube3a protein level, immunoblotting was performed using rabbit anti-Ube3a antibody (Abeam) and Alexa Fluor 680 goat anti-rabbit IgG (Invitrogen).
(§2) E13.5-15.5 primary cortical neurons from Ube3a-YFP, Ube3a-deficient, or wild-type mice were plated in 6-well plates. At DIV7, neurons were treated with drug or 0.1% DMSO for 72 h, and then total protein lysates were obtained by lysis buffer (1% Triton X-100, 5 mM EDTA, 0.15M NaCl, 10 mM Tris-HCl, pH 7.5, phosphatase inhibitor cocktails 1, protease inhibitor cocktail). […] To control for protein loading, UBE3A-YFP or UBE3A protein levels were normalized to actin levels detected in each sample.

Experiment [3] relates to UBE3A protein. Kind of experiment: Western blot of endogenous UBE3A protein in Ube3a m-/p+ cortical neurons. The format is cell-based, mouse. The following applies: 300 nM, 72 h. The procedure:
as §1, §2
(In western blotting, separated proteins are transferred to a membrane and probed.)

Experiment [4] deals with T1, Topoisomerase I (Mus musculus, UniProt Q04750).
T1 construct: immunoblotted with an anti-Topoisomerase I antibody (Santa Cruz) to detect free Topoisomerase I; endogenous in cells; host or cells: DIV7 primary mouse cortical neurons (Ube3a m-/p+ and wild type)
T1 sequence (Q04750 1-767): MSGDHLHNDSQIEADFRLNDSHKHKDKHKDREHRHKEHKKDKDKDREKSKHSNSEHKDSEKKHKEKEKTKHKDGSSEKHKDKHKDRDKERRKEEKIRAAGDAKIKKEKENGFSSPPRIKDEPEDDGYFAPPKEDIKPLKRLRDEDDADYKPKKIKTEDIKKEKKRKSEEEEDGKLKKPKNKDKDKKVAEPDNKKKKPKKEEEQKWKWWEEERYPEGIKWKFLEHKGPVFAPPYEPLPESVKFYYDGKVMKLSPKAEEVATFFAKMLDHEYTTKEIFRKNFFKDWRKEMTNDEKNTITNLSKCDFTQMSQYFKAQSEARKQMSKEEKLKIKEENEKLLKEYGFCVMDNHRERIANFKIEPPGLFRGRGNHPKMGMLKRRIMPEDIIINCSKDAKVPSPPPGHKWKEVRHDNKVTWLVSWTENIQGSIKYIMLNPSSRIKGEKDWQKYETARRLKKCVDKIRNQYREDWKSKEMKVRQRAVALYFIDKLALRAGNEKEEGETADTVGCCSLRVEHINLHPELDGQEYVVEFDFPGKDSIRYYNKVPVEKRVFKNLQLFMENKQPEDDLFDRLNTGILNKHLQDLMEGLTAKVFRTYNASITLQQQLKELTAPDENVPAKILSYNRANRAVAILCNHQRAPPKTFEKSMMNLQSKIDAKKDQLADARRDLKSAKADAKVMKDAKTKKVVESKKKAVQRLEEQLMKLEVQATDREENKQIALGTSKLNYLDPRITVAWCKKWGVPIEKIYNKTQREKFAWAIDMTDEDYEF
Kind of experiment: Topoisomerase depletion assay (free TOP1 by Western blot). It is filed as cell-based. The following applies: 300 nM, 72 h, cultured neurons. The procedure:
Cells were harvested and lysed on ice for 30 min in RIPA buffer (50 mM Tris-HCl, 150 mM NaCl, 1% Triton X-100, 0.5% sodium deoxycholate, 0.1% SDS, pH 7.4) to preserve topoisomerase cleavable complexes. Cell extracts were then centrifuged at 14,000 rpm at 4° C. to pellet insoluble debris. 30 μg of the cell supernatant was diluted in 2×SDS sample buffer and separated on a 7.5% SDS-PAGE gel, transferred to PVDF membrane, and immunoblotted with an anti-Topoisomerase I antibody (Santa Cruz) to detect free Topoisomerase I. An anti-β-Tubulin (Sigma) antibody was used as a loading control.

In experiment [5] the test system is Ube3a-ATS/Snrpn promoter region. Kind of experiment: Bisulfite sequencing of the Ube3a-ATS/Snrpn promoter region. It is filed as cell-based, mouse. The following applies: 300 nM, 72 h, cortical neurons. The method, then: Bisulfite conversion was performed on 200 ng genomic DNA using the MethylCode kit (Invitrogen). 1 μL of converted DNA was used as template for PCR. A first round of PCR was performed as described in Peery et al. using the W18 (5′-[…]) (SEQ ID NO:5) and W19 (5′-[…]) (SEQ ID NO:6) or W16 (5′-[…]) (SEQ ID NO:7) and W17 (5′-[…]) (SEQ ID NO:8) primer sets^38. A second semi-nested round of PCR was performed using 1 μL of the primary PCR reaction as template. For semi-nested PCR, the W18 primer was used with the nested W19-inside primer (5′-[…]) (SEQ ID NO:9), or the W16 primer was used with the nested W17-inside primer (5′-[…]) (SEQ ID NO:10). Products were separated on an agarose gel and extracted using the Qiaquick gel extraction kit (Qiagen). Purified DNA was ligated into the pGem-T Easy vector (Promega). Individual clones were amplified and sequenced.

Take `CCc1c2c(nc3ccc(OC(=O)N4CCC(N5CCCCC5)CC4)cc13)-c1cc3c(c(=O)n1C2)COC(=O)[C@]3(O)CC` [Irinotecan]: the “paternal Ube3a-YFP mRNA level (RT-PCR)” value in experiment [1] is listed as “significantly increased the level of paternal Ube3a-YFP mRNA”. For the same molecule, in experiment [2], the “paternal Ube3a-YFP protein level (immunoblot)” value is given as “significantly increases paternal Ube3a-YFP protein levels”.
Turning to `CC[C@@]1(O)C(=O)OCc2c1cc1n(c2=O)Cc2cc3c(CN(C)C)c(O)ccc3nc2-1` [Topotecan], the “UBE3A protein level in neurons from Ube3a m−/p+ mice” value in experiment [3] is “restored UBE3A protein to wild-type levels”. Further, the “amount of free (unbound) TOP1” value in experiment [4] is on record as “significantly reduce the amount of free TOP1”. Also, in experiment [5], the “methylation at the imprinting center” value is reported as “did not alter methylation at the imprinting center”.
